Source: patent US8163756B2 (priority 2004, dated 2012)

target: B-Raf(V599E) kinase (Homo sapiens, UniProt P15056, V600E); assay: B-Raf(V599E) kinase assay B1 (construct 1, MEK1 substrate, coupled spectrophotometric); assay type: biochemical
Method: The test compounds were incubated with the reaction mixtureat 30° C. for 2 h. […] The reaction rate was calculated using the […] time frame. […] IC50 values were calculated from a series of percent inhibition values determined at a range of inhibitor concentrations using software routines as implemented in the GraphPad Prism software package.

Sequence of B-Raf(V599E) kinase (P15056 with tags, fused parts or gaps V600E): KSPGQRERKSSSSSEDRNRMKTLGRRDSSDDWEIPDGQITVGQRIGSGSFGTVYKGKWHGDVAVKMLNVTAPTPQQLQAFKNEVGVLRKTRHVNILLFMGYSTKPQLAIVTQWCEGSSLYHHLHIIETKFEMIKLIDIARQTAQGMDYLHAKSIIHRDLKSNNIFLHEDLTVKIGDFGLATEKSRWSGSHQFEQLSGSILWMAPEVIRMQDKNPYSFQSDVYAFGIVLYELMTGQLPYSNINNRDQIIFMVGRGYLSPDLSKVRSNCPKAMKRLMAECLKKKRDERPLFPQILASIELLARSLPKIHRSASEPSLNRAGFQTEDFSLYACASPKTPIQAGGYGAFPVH

| SMILES | IC50 [nM] |
| --- | --- |
| CC(C)(C)c1cc(NC(=O)Nc2ccc(F)cc2)n(-c2cccc(Cn3c(=O)[nH]n(-c4ccccc4)c3=O)c2)n1 [Example 272, 1-(3-t-butyl-1-{3-[(3,5-dioxo-1-phenyl-1,2,4-triazolidin-4-yl)methyl]phenyl}-1H-pyrazol-5-yl)-3-(4-fluorophenyl)urea] | 61 |
| CC(C)(C)c1cc(NC(=O)NC2CCCCC2)n(-c2cccc(-c3cccnc3)c2)n1 [Example 274, 1-[5-t-butyl-2-(3-pyridin-3-yl-phenyl)-2H-pyrazol-3-yl]-3-cyclohexyl-urea] | 134 |
| CC(C)(C)c1ncc(NC(=O)Nc2cccc(Oc3ccccc3)c2)c(-c2ccccc2)n1 [Example 280, 1-(2-t-butyl-4-phenylpyrimidin-5-yl)-3-(3-phenoxyphenyl)urea] | 275 |
| CC(C)(C)c1cc(NC(=O)Nc2ccc(F)cc2F)n(-c2ccc3ncccc3c2)n1 [Example 284, 1-(3-t-butyl-1-(quinolin-6-yl)-1H-pyrazol-5-yl)-3-(2,4-difluorophenyl)urea] | 8.5 |
| CC(C)(C)c1cc(NC(=O)Nc2cccc(Cl)c2Cl)n(-c2cc(C(=O)O)c3ccccc3c2)n1 [Example 287, 3-{3-t-butyl-5-(3-(2,3-dichlorophenyl)ureido]-1H-pyrazol-1-yl}-1-naphthoic acid] | 41 |
| CCOC(=O)c1cc(-n2nc(C(C)(C)C)cc2NC(=O)NC2CCCCC2)cc2ccccc12 [Example 288, ethyl 3-(3-t-butyl-5-(3-cyclohexylureido)-1H-pyrazol-1-yl)-1-naphthoate] | 56 |
| CCOC(=O)c1cc(-n2nc(C(C)(C)C)cc2NC(=O)Nc2ccc(F)cc2F)cc2ccccc12 [Example 289, ethyl 3-(3-t-butyl-5-(3-(2,4-difluorophenyl)ureido)-1H-pyrazol-1-yl)-1-naphthoate] | 28 |
| CC(C)(C)c1cc(NC(=O)Nc2ccccc2)n(-c2cc(CO)c3ccccc3c2)n1 [Example 290, 1-[3-t-butyl-1-(4-(hydroxymethyl)naphthalen-2-yl)-1H-pyrazol-5-yl]-3-phenylurea] | 12 |
| CC(C)(C)c1cc(NC(=O)Nc2ccccc2F)n(-c2cc(CO)c3ccccc3c2)n1 [Example 291, 1-(3-t-butyl-1-(4-(hydroxymethyl)naphthalen-2-yl)-1H-pyrazol-5-yl)-3-(2-fluorophenyl)urea] | 5.3 |
| CC(C)(C)c1cc(NC(=O)NC2CCCCC2)n(-c2cc(CO)c3ccccc3c2)n1 [Example 292, 1-(3-t-butyl-1-(4-(hydroxymethyl)naphthalen-2-yl)-1H-pyrazol-5-yl)-3-cyclohexylurea] | 22 |
| CC(C)(C)c1cc(NC(=O)Nc2ccc(F)cc2)n(-c2cc(CO)c3ccccc3c2)n1 [Example 293] | 7 |
| CC(C)(C)c1cc(NC(=O)Nc2cccc(F)c2F)n(-c2cc(CO)c3ccccc3c2)n1 [Example 294] | 3.3 |
| CC(C)(C)c1cc(NC(=O)Nc2ccccc2)n(-c2cc(CN)c3ccccc3c2)n1 [Example 295, 1-[1-(4-(aminomethyl)naphthalen-2-yl)-3-t-butyl-1H-pyrazol-5-yl]-3-phenylurea] | 52 |
| CCOC(=O)Cc1cc(-n2nc(C(C)(C)C)cc2NC(=O)Nc2ccc(Cl)cc2)cc2ccccc12 [Example 298, (3-{3-t-butyl-5-[3-(4-chlorophenyl)ureido]pyrazol-1-yl}naphthalen-1-yl)acetic acid ethyl ester] | 83 |
| COC(=O)Cc1cc(-n2nc(C(C)(C)C)cc2NC(=O)Nc2ccccc2)cc2ccccc12 [Example 299, {3-[3-t-butyl-5-(3-phenylureido)pyrazol-1-yl]naphthalen-1-yl}acetic acid methyl ester] | 20 |
| CC(C)(C)c1cc(NC(=O)Nc2ccc(Cl)cc2)n(-c2cc(CC(=O)O)c3ccccc3c2)n1 [Example 300, (3-{3-t-butyl-5-[3-(4-chlorophenyl)ureido]pyrazol-1-yl}naphthalen-1-yl)acetic acid] | 9.2 |
| CC(C)(C)c1cc(NC(=O)Nc2ccc(Cl)cc2)n(-c2cc(CCO)c3ccccc3c2)n1 [Example 302, 1-{5-t-butyl-2-[4-(2-hydroxyethyl)naphthalen-2-yl]-2H-pyrazol-3-yl}-3-(4-chlorophenyl)urea] | 13 |
| CC(C)(C)c1cc(NC(=O)Nc2cccc(Cl)c2Cl)n(-c2cc(CCO)c3ccccc3c2)n1 [Example 303, 1-{5-t-butyl-2-[4-(2-hydroxyethyl)naphthalen-2-yl]-2H-pyrazol-3-yl}-3-(2,3-dichlorophenyl)urea] | 4.3 |
| CC(C)(C)c1cc(NC(=O)Nc2cccc(F)c2)n(-c2ccc3c(c2)CCN3)n1 [Example 306, 1-(3-t-butyl-1-(indolin-5-yl)-1H-pyrazol-5-yl)-3-(3-fluorophenyl)urea] | 36 |

| SMILES | IC50 [nM] |
| --- | --- |
| CC(C)(C)c1cc(NC(=O)Nc2ccc(Cl)cc2)n(-c2ccc3c(c2)C(=O)NCC3)n1 [Example 309, 1-[3-t-butyl-1-(1-oxo-1,2,3,4-tetrahydroiso-quinolin-7-yl)-1H-pyrazol-5-yl]-3-(4-chlorophenyl)urea] | 249 |
| CC(C)(C)c1cc(NC(=O)NC2CCCCC2)n(-c2ccc3c(c2)C(=O)NCC3)n1 [Example 310, 1-(3-t-butyl-1-(1-oxo-1,2,3,4-tetrahydroiso-quinolin-7-yl)-1H-pyrazol-5-yl)-3-cyclohexylurea] | 98 |
| CC(C)(C)c1cc(NC(=O)Nc2ccc(F)cc2F)n(-c2ccc3c(c2)C(=O)NCC3)n1 [Example 311, 1-(3-t-butyl-1-(1-oxo-1,2,3,4-tetrahydroiso-quinolin-7-yl)-1H-pyrazol-5-yl)-3-(2,4-difluorophenyl)urea] | 32 |
| CC(C)(C)c1cc(NC(=O)Nc2ccccc2F)n(-c2ccc3c(c2)C(=O)NCC3)n1 [Example 312, 1-(3-t-butyl-1-(1-oxo-1,2,3,4-tetrahydroiso-quinolin-7-yl)-1H-pyrazol-5-yl)-3-(2-fluorophenyl)urea] | 35 |
| CC(C)(C)c1cc(NC(=O)Nc2ccccc2Cl)n(-c2ccc3c(c2)C(=O)NCC3)n1 [Example 313, 1-(3-t-butyl-1-(1-oxo-1,2,3,4-tetrahydroiso-quinolin-7-yl)-1H-pyrazol-5-yl)-3-(2-chlorophenyl)urea] | 46 |
| Cc1cc(NC(=O)Nc2cc(C(C)(C)C)nn2-c2ccc3c(c2)C(=O)NCC3)no1 [Example 314, 1-(3-t-butyl-1-(1-oxo-1,2,3,4-tetrahydroiso-quinolin-7-yl)-1H-pyrazol-5-yl)-3-(5-methylisoxazol-3-yl)urea] | 266 |
| CC(C)(C)c1cc(NC(=O)Nc2ccc(Cl)cc2)n(-c2ccc3c(c2)CCC(=O)N3)n1 [Example 315, 1-(3-t-butyl-1-(2-oxo-1,2,3,4-tetrahydro-quinolin-6-yl)-1H-pyrazol-5-yl)-3-(4-chlorophenyl)urea] | 186 |
| CC(C)(C)c1cc(NC(=O)Nc2ccc(F)cc2)n(-c2ccc3c(c2)CCC(=O)N3)n1 [Example 317] | 36 |
| CC(C)(C)c1cc(NC(=O)Nc2cccc(F)c2F)n(-c2ccc3c(c2)CCC(=O)N3)n1 [Example 320, 1-(3-t-butyl-1-(2-oxo-1,2,3,4-tetrahydro-quinolin-6-yl)-1H-pyrazol-5-yl)-3-(2,3-difluorophenyl)urea] | 4.6 |
| CC(C)(C)c1cc(NC(=O)Nc2ccc(F)cc2F)n(-c2ccc3c(c2)CCC(=O)N3)n1 [Example 321, 1-(3-t-butyl-1-(2-oxo-1,2,3,4-tetrahydro-quinolin-6-yl)-1H-pyrazol-5-yl)-3-(2,4-difluorophenyl)urea] | 7.2 |
| CC(C)(C)c1cc(NC(=O)Nc2ccc(F)c(F)c2F)n(-c2ccc3c(c2)CCC(=O)N3)n1 [Example 322, 1-(3-t-butyl-1-(2-oxo-1,2,3,4-tetrahydro-quinolin-6-yl)-1H-pyrazol-5-yl)-3-(2,3,4-trifluorophenyl)urea] | 4.1 |
| CC(C)(C)c1cc(NC(=O)Nc2cc(F)c(F)cc2F)n(-c2ccc3c(c2)CCC(=O)N3)n1 [Example 323, 1-(3-t-butyl-1-(2-oxo-1,2,3,4-tetrahydro-quinolin-6-yl)-1H-pyrazol-5-yl)-3-(2,4,5-trifluorophenyl)urea] | 3.4 |
| CC(C)(C)c1cc(NC(=O)Nc2cc(F)c(F)c(F)c2)n(-c2ccc3c(c2)CCC(=O)N3)n1 [Example 324, 1-(3-t-butyl-1-(2-oxo-1,2,3,4-tetrahydro-quinolin-6-yl)-1H-pyrazol-5-yl)-3-(3,4,5-trifluorophenyl)urea] | 17 |
| CC(C)(C)c1cc(NC(=O)Nc2cccc(Oc3ccccc3)c2)n(-c2ccc3c(c2)CCC(=O)N3)n1 [Example 325, 1-(3-t-butyl-1-(2-oxo-1,2,3,4-tetrahydro-quinolin-6-yl)-1H-pyrazol-5-yl)-3-(3-phenoxyphenyl)urea] | 4.5 |
| CC(C)(C)c1cc(NC(=O)Nc2cc(F)cc(F)c2)n(-c2ccc3c(c2)CCC(=O)N3)n1 [Example 326, 1-(3-t-butyl-1-(2-oxo-1,2,3,4-tetrahydro-quinolin-6-yl)-1H-pyrazol-5-yl)-3-(3,5-difluorophenyl)urea] | 17 |
| CC(C)(C)c1cc(NC(=O)NC2CCCCC2)n(-c2ccc3c(c2)CNCC3)n1 [Example 327, 1-(3-t-butyl-1-(1,2,3,4-tetrahydroisoquinolin-7-yl)-1H-pyrazol-5-yl)-3-cyclohexylurea] | 330 |
| CC(C)(C)c1cc(NC(=O)Nc2cccc(F)c2F)n(-c2ccc3c(c2)CCN(S(C)(=O)=O)C3)n1 [Example 328, 1-(3-t-butyl-1-(2-(methylsulfonyl)-1,2,3,4-tetrahydroisoquinolin-6-yl)-1H-pyrazol-5-yl)-3-(2,3-difluorophenyl)urea] | 25 |
| CC(C)(C)c1cc(NC(=O)Nc2cccc(F)c2F)n(-c2ccc3[nH]c(=O)ccc3c2)n1 [Example 329, 1-(3-t-butyl-1-(2-oxo-1,2-dihydroquinolin-6-yl)-1H-pyrazol-5-yl)-3-(2,3-difluorophenyl)urea] | 4.2 |
| CC(C)(C)c1cc(NC(=O)Nc2cc(F)cc(F)c2F)n(-c2ccc3[nH]c(=O)ccc3c2)n1 [Example 331] | 3.4 |
